Experiment [1] has as its target T1, WT-TTR (Homo sapiens, UniProt P02766).
T1 construct: composed of 127-residue β-sheet-rich subunits; made in house; host or cells: E. coli
The experiment is described as follows: Fluorimetric assay with recombinant WT-TTR. It counts as binding. As to the method:
WT-TTR was expressed in an E. coli expression system and purified as described previously. […] The samples were vortexed, and incubated for 18 h at 25° C. […] The excitation slit was set at 5 nm and the emission slit was set at […]. The samples were excited at 328 nm and the emission spectra were collected from 350 to 550 nm. WT-TTR was expressed and purified from an E. coli expression system as described previously. [Lashuel et al., Biochemistry 1999, 38:13560]. […] The samples were vortexed, and incubated for 18 hours at 25° C. […] The excitation slits was set at 5 nm and the emission slits was set at […]. The samples were excited at 328 nm and the emission spectra were collected from 330 to 550 nm (FIG. 4). The time-dependent fluorescence changes were monitored in similar manner (FIG. 5).

Experiment [2] concerns the target T2, K15A-TTR (Homo sapiens, UniProt P02766, K35A).
T2 construct: composed of 127-residue β-sheet-rich subunits; made in house
As to the kind of experiment: RP-HPLC analysis of reaction with K15A-TTR homotetramer. It counts as binding. The source says:
A strictly analogous study performed with the K15A homotetrameric TTR mutant confirmed that K15 was essential for the observed chemoselective reaction between TTR and Compounds […] (FIG. 1A, bottom trace). […] However, it is important to note that Compounds 1-3 were only slightly less chemoselective (<5% reaction with K15A).
The ability of compounds A1 and A2, auxochromic analogs of previously discussed stilbenes [Klabunde et al., Nat. Struct. Biol. 2000, 7, 312-321; Connelly et al., Curr. Opin. Struc. Biol. 2010, 20, 54-62; Johnson et al., J. Med. Chem. 2008, 51, 6348-6358; Choi et al., J. Am. Chem. Soc. 2010, 132, 1359-1370; Choi et al., Nat. Chem. Biol. 2010, 6, 133-139; and Baures et al., Bioorg. Med. Chem. 1998, 6, 1389-1401] to form a chemoselective amide bond with the K15 residue of TTR was assessed by reverse-phase-HPLC and liquid chromatography-mass spectrometry analysis. […] The binding of the covalent modifier A2 to K15A-TTR (in the absence of amide bond conjugation) was confirmed by incubating A2 with K15A-TTR in phosphate buffer (pH 7) followed by K15A immunoisolation using a Sepharose® resin-conjugated anti-TTR polyclonal antibody [Purkey et al., Proc. Natl. Acad. Sci. U.S.A. 2001, 98, 5566-5571].
Recombinant WT-TTR was expressed as described previously [Lashuel et al., Biochemistry 38:13560-13573 (1999)]. For analysis of test compounds with TTR, each compound (1.5 μL in DMSO, 1.44 mM) was added to 300 μL of WT-TTR or K15A mutant TTR (3.6 μM, 10 mM sodium phosphate, 100 mM KCl, 1 mM EDTA, pH 7.0). The samples were vortexed, and incubated for 18 hours at 25° C. Reverse phase high performance liquid chromatography (RP-HPLC) was performed on a Water 600 E multi-solvent delivery system, using a Waters 486 tunable absorbance detector, a 717 autosampler, and a ThermoHypersil Keystone Betabasic-18 column μ150 Å pore size, 3 μm particle size, and mobile phase A; 0.1% TFA in 95% H2O+5% CH3CN and mobile phase B, 0.1% TFA in 95% CH3CN+5% H2O). Linear gradients were run from 100:0 to 0:100 A:B for 27 minutes.

Experiment [3] deals with T2, K15A-TTR. The experiment is described as follows: Fluorimetric assay with recombinant K15A-TTR. The conditions noted are these: 24 hour incubation. It counts as binding. As to the method: [The source words this procedure for another variant and says it was used here with some conditions changed.] The excitation spectra are shown with dotted traces (λmax=328 nm), and emission spectra are adjacently (λmax=384 nm). Very low fluorescence resulted from 328 nm excitation of stilbene Compounds 4 or 2 alone in buffer (FIGS. 4A and 4B; traces substantially on the X-axis).
WT-TTR was expressed in an E. coli expression system and purified as described previously. [Lashuel et al., Biochemistry 1999, 38, 13560-13573] The covalent TTR modifiers (A1 or A2) or the non-covalent TTR ligand B2 (5 μL of a 1.44 mM solution in DMSO, final concentration: 7.2 μM) were added to 1 mL of a solution of WT-TTR homotetramer (0.2 mg/mL, 3.6 μM) in 10 mM phosphate, 100 mM KCl and 1 mM EDTA (pH 7.0 phosphate buffer) in a 2 mL Eppendorf tube. The samples were vortexed, and incubated for 18 h at 25° C. The fluorescence changes were monitored using a Varian Cary 50 spectrofluorometer at 20° C. in a 1 cm path length quartz cell. The excitation slit was set at 5 nm and the emission slit was set at […]. The samples were excited at 328 nm and the emission spectra were collected from 350 to 550 nm.
WT-TTR was expressed and purified from an E. coli expression system as described previously. [Lashuel et al., Biochemistry 1999, 38:13560]. The covalent modifiers (Compounds 4 or 2) or the non-covalent TTR ligand Compound B2 (5 μL of a 1.44 mM solution in DMSO) were added to 1 mL of a solution of WT-TTR (0.2 mg/mL, 3.6 μM) in 10 mM phosphate, 100 mM KCl and 1 mM EDTA (pH 7.0) in a 2 mL Eppendorf tube. The samples were vortexed, and incubated for 18 hours at 25° C. The fluorescence changes were monitored using a Varian Cary 50 spectrofluorometer at 20° C. in a 1 cm path length quartz cell. The excitation slits was set at 5 nm and the emission slits was set at […]. The samples were excited at 328 nm and the emission spectra were collected from 330 to 550 nm (FIG. 4). The time-dependent fluorescence changes were monitored in similar manner (FIG. 5).

The target in the next experiment is T3, V30M-TTR (Homo sapiens, UniProt P02766, V50M).
T3 construct: composed of 127-residue β-sheet-rich subunits; made in house
The experiment is described as follows: Acid-mediated V30M-TTR fibril formation assay (turbidity at 400 nm). It counts as biochemical. The conditions noted are these: pH 4.4, 72 hours, 37° C.; for % Fibril Formation 7.2 μM (V30M-TTR): compound 7.2 μM; for % Fibril Formation […] (V30M-TTR): compound […]. As to the method:
Compounds (5 μL of 1.44 mM solution in DMSO) were added to 495 μL of TTR (7.2 μM, in 10 mM sodium phosphate, 100 mM KCl, 1 mM EDTA, pH 7.0). The mixtures were vortexed and incubated (maintained) for 18 hours at 25° C. […] The solutions were vortexed to evenly distribute any precipitate, and turbidity was measured at 400 nm using a Hewlett Packard model 8453 UV-VIS Spectrophotometer.

Experiment [4] has as its target T4, TTR in human blood plasma (Homo sapiens, UniProt P02766).
T4 construct: RP-HPLC analysis of TTR captured from human plasma; from tissue; host or cells: human blood plasma
The experiment is described as follows: Modification of TTR in human blood plasma (immunocapture, RP-HPLC). The conditions noted are these: compound 10.8 μM, 24 hours, 37° C.; maximum 50%. It counts as binding. As to the method: Compounds 1-4 (10.8 μM) were incubated for 24 hours at 37° C. with human plasma, wherein the TTR concentration is 3.6-5.4 μM.
Furthermore, compound A2 was evaluated to determine its ability to bind selectively to and then react chemoselectively with TTR over the 4000+ other proteins in human blood plasma. Compound A2 (10.8 μM) was incubated with human blood plasma (TTR concentration is 3.6-5.4 μM) for 24 hours at 37° C. before immunoisolating human TTR using a Sepharose® resin-conjugated anti-TTR polyclonal antibody [Purkey et al., Proc. Natl. Acad. Sci. U.S.A. 2001, 98, 5566-5571].
The modification ratio of TTR by kinetic stabilizers in human plasma was evaluated as described [Purkey et al., Proc. Natl. Acad. Sci. U.S.A. 98:5566-5571 (2001)] with minor modifications. Briefly, compounds (7.5 μL of 1.44 mM solution in DMSO) were added to 1 mL of human plasma and incubated at 37° C. for 24 hours on a rocker (30 rpm). A 1:1 (v/v) slurry of unfunctionalized Sepharose® resin in 10 mM Tris, 140 mM NaCl, pH 8.0 (TSA) was added and the solutions were incubated for 1 hour at 4° C. on a rocker plate, followed by brief centrifugation.
Two 400 μL aliquots of the supernatants were added to 300 μL of 1:1 (v:v) slurry of anti-TTR antibody-conjugated Sepharose® resin in TSA. The solutions were gently rocked at 4° C. for 20 minutes (30 rpm), centrifuged, and supernatants were removed. The resin was washed by shaking for 1 minute in 1 mL of TSA solution containing 0.05% saponin (three times) and then 1 mL of TSA solution (twice). The TTR and bound test compound were dissociated from the resin by adding 155 μL of triethylamine (100 mM, pH 11.5) and vortexing for 1 minute. After centrifugation, 135 μL of solution containing test compound and TTR was analyzed by RP-HPLC as described above except that the linear gradients were run from 100:0 to 0:100 A:B for 45 minutes.

Experiment [5] deals with T1, WT-TTR. The experiment is described as follows: Acid-mediated WT-TTR fibril formation assay (turbidity at 400 nm). The conditions noted are these: for IC50: % fibril formation after 72 hours, read-out: IC50 (apparent), inhibition of WT-TTR amyloidogenesis; for % Fibril Formation 7.2 μM (WT-TTR): compound 7.2 μM; for % Fibril Formation 7.2 μM (WT-TTR) / % Fibril Formation […] (WT-TTR): pH 4.4, 72 hours, 37° C.; for % Fibril Formation […] (WT-TTR): compound […]. It counts as biochemical. As to the method:
The mixtures were vortexed and incubated (maintained) for 18 hours at 25° C.

Like-named read-outs stand apart in the source and are kept apart here.

The source of these data is patent US8703815B2, “Small molecules that covalently modify transthyretin” (The Scripps Research Institute, priority 2009, dated 2014).

`Cc1cc(/C=C/c2cc(C(=O)Oc3ccc(F)cc3)cc(N(C)C)c2)cc(C)c1O` [Compound A1, (E)-4-fluorophenyl 3-(dimethylamino)-5-(4-hydroxy-3,5-dimethylstyryl)benzoate]: the “fluorescence after incubation with WT-TTR (in words)” value on WT-TTR [1] (phosphate buffer pH 7, 18 hours) is on record as “bright blue fluorescence”. In addition, at K15A-TTR [2], the “reaction with K15A-TTR (in words)” value was “no conjugation”.
As to `Cc1cc(/C=C/c2ccc(C(=O)Oc3ccccc3[N+](=O)[O-])cc2)cc(C)c1O` [Compound 6], on K15A-TTR [2], the “reaction with K15A-TTR (in words)” value was “more non-chemoselective conjugation”.
For `CCCNC(=O)c1cccc(/C=C/c2cc(C)c(O)c(C)c2)c1` [Compound B1, (E)-3-(4-hydroxy-3,5-dimethylstyryl)-N-propylbenzamide], the “increase in fluorescence intensity upon binding to K15A-TTR” value at K15A-TTR [3] is reported as “about 190 fold”. Besides, the “time for binding to WT-TTR” value at WT-TTR [1] was not above 1 min. On WT-TTR [1] (WT-TTR […], compound 7.2 μM, 24 hours), the “increase in fluorescence intensity with WT-TTR vs compound alone in buffer” value is listed as “about 400 fold”. In addition, the “increase in fluorescence intensity with WT-TTR within 1 minute vs compound alone in buffer” value on WT-TTR [1] (time-dependent emission spectra) was “about 360 fold”.
For `Cc1cc(/C=C/c2cccc(C(=O)Oc3ccccc3[N+](=O)[O-])c2)cc(C)c1O` [Compound 3, (E)-2-nitrophenyl 3-(4-hydroxy-3,5-dimethylstyryl)benzoate], at V30M-TTR, the “% Fibril Formation 7.2 μM (V30M-TTR)” value worked out at 3% and the “% Fibril Formation […] (V30M-TTR)” value is 33%. In addition, the “% Modification of TTR subunits in Human Blood Plasma” value in experiment [4] was 49% (±0.7%). Moreover, the IC50 on WT-TTR [5] (WT-TTR 3.6 μM) fell in the range of 1960 to 2260 nM. Also, on WT-TTR [5] (WT-TTR […]), the “% Fibril Formation 7.2 μM (WT-TTR)” value was 4% and the “% Fibril Formation […] (WT-TTR)” value is 21%.
For `O=C(Sc1ccccc1)c1cccc(/C=C/c2cc(Br)c(O)c(Br)c2)c1` [Compound 1, (E)-S-phenyl 3-(3,5-dibromo-4-hydroxystyryl)benzothioate], on V30M-TTR, the “% Fibril Formation 7.2 μM (V30M-TTR)” value is on record as 3% and the “% Fibril Formation […] (V30M-TTR)” value was determined as 17%. Further, in experiment [4], the “% Modification of TTR subunits in Human Blood Plasma” value is recorded as 36% (±0.4%). For the same compound, on WT-TTR [5] (WT-TTR 3.6 μM), the IC50 fell in the range of 1960 to 2260 nM. Further, at WT-TTR [5] (WT-TTR […]), the IC50 turned out to be 2000 nM, the “% Fibril Formation 7.2 μM (WT-TTR)” value was 2% and the “% Fibril Formation […] (WT-TTR)” value amounted to 12%.
